# According to patent publication US20050261332A1, “Sulfonamides and uses thereof” (priority 2004, published 2005):
# Target: T1, GHS-R (Homo sapiens, UniProt Q92847)
# T1 construct: expressed in transfected cells; host or cells: COS-7 cells
# Experiment: GHS-R competition binding assay (Ki of GHS-R antagonizing compounds)
# Procedure: One exemplary binding assay is as follows: GHS-R expressing COS-7 cells cultured at a density of 1×10^5 cells per well so that binding is assayed in the range of about 5-8 % binding of the radioactive ligand. For example, the cells can express an endogenous nucleic acid encoding GHS-R or an exogenous nucleic acid encoding GHS-R. Cells transfected with an exogenous nucleic acid encoding GHS-R can be used, e.g., two days, after transfection. Competition binding experiments are performed for 3 hours at 4° C. using 25 pM of ^125I-ghrelin in 0.5 ml of 50 mM HEPES buffer, pH 7.4, supplemented with 1 mM CaCl2, 5 mM MgCl2, and 0.1% (w/v) bovine serum albumin, 40 mg/ml bacitracin. Non-specific binding can be determined as the binding in the presence of […] of unlabeled ghrelin. Cells are washed twice in 0.5 ml of ice-cold buffer and then lysed with 0.5-1 ml of lysis buffer (8 M Urea, 2% NP40 in 3 M acetic acid). After washing and lysis, the bound radioactivity is counted. Assays can be run in duplicate or triplicate, e.g., to provide statistical power.
# Values of the dissociation and inhibition constants (Kd and Ki) can be estimated from competition binding experiments using the equation: Kd=IC50-L and Ki=IC50/(1+L/Kd), where L is the concentration of radioactive ligand. Bmax values can be estimated from competition binding experiments using the equation Bmax=B0 IC50/[ligand], where B0 is the specifically bound radioligand.
# T1 sequence (Q92847 whole entry, species assumed): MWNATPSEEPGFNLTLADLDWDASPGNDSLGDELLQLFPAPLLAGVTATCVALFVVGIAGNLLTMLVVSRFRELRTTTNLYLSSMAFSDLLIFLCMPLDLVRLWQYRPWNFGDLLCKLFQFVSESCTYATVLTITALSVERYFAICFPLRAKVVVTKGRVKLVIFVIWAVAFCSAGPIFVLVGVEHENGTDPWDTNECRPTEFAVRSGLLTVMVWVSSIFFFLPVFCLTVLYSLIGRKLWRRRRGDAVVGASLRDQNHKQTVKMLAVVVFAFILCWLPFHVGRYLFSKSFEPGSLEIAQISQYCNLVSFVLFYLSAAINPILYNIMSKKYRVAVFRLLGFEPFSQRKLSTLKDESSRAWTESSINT
row,SMILES,Ki [nM]
1,"CCN(CC)CCCS(=O)(=O)N[C@H](CCc1ccccc1)C(=O)NCc1ccc(-c2ccccc2CCNC(=O)NC)cc1 [Compound 206, (R)-2-(3-(diethylamino)propylsulfonamido)-N-((2′-(2-(3-methylureido)ethyl)biphenyl-4-yl)methyl)-4-phenylbutanamide]",< 100
2,"CCN(CC)CCCS(=O)(=O)N[C@H](CCc1ccccc1)C(=O)NCc1ccc(-c2ccccc2CNC(=O)OC(C)(C)C)cc1 [Compound 182, (R)-(4′-{[2-(3-Diethylamino-propane-1-sulfonylamino)-4-phenyl-butyrylamino]-methyl}-biphenyl-2-ylmethyl)-carbamic acid tert-butyl ester]",100 to 1000
3,"CN(C)CCCS(=O)(=O)N[C@H](COCc1ccccc1)C(=O)N1CCC2(CC1)CN(S(C)(=O)=O)c1ccccc12 [Compound 149, (R)-N-(3-(benzyloxy)-1-(1-(methylsulfonyl)spiro[indoline-3,4′-piperidine]-1′-yl)-1-oxopropan-2-yl)-3-(dimethylamino)propane-1-sulfonamide]",100 to 1000
4,"CCN(CC)CCCS(=O)(=O)N[C@H](CCc1ccccc1)C(=O)NCc1ccc(-c2ccccc2CNC(C)=O)cc1 [Compound 170, (R)-N-((2′-(acetamidomethyl)biphenyl-4-yl)methyl)-2-(3-(diethylamino)propylsulfonamido)-4-phenylbutanamide]",100 to 1000
5,"CCN(CC)CCCS(=O)(=O)N[C@H](CCc1ccccc1)C(=O)c1ccc(-c2ccccc2CNC(=O)NCCO)cc1 [Compound 198, (R)-3-(diethylamino)-N-(1-(2′-((3-(2-hydroxyethyl)ureido)methyl)biphenyl-4-yl)-1-oxo-4-phenylbutan-2-yl)propane-1-sulfonamide]",< 100
6,"CN1CCC(S(=O)(=O)N[C@H](COCc2ccccc2)C(=O)N2CCC3(CC2)CN(S(C)(=O)=O)c2ccccc23)CC1 [Compound 137, (R)-N-(3-(benzyloxy)-1-(1-(methylsulfonyl)spiro[indoline-3,4′-piperidine]-1′-yl)-1-oxopropan-2-yl)-1-methylpiperidine-4-sulfonamide]",< 100
7,"CCN(CC)CCCS(=O)(=O)N[C@@H](CCc1ccccc1)C(=O)N1CCC2(CC1)CN(S(C)(=O)=O)c1ccccc12 [Compound 211, (S)-3-(diethylamino)-N-(1-(1-(methylsulfonyl)spiro[indoline-3,4′-piperidine]-1′-yl)-1-oxo-4-phenylbutan-2-yl)propane-1-sulfonamide]",< 100
8,"CCN(CC)CCCS(=O)(=O)N[C@H](COCc1ccccc1)C(=O)NCc1ccc(-c2ccccc2-c2nnn(C(C)(C)C)n2)cc1 [Compound 155, (R)-3-Benzyloxy-N-[2′-(2-tert-butyl-2H-tetrazol-5-yl)-biphenyl-4-ylmethyl]-2-(3-diethylamino-propane-1-sulfonylamino)-propionamide]",100 to 1000
9,"CCNC(=O)Nc1ccccc1-c1ccc(C(=O)[C@@H](CCc2ccccc2)NS(=O)(=O)CCCN(CC)CC)cc1 [Compound 172, (R)-3-(diethylamino)-N-(1-(2′-(3-ethylureido)biphenyl-4-yl)-1-oxo-4-phenylbutan-2-yl)propane-1-sulfonamide]",100 to 1000
10,"CC(C)N(C)CCS(=O)(=O)N[C@H](COCc1ccccc1)C(=O)N1CCC2(CC1)CN(S(C)(=O)=O)c1ccccc12 [Compound 131, (R)-N-(3-(benzyloxy)-1-(1-(methylsulfonyl)spiro[indoline-3,4′-piperidine]-1′-yl)-1-oxopropan-2-yl)-2-(isopropyl(methyl)amino)ethanesulfonamide]",100 to 1000
11,"CS(=O)(=O)N1CC2(CCN(C(=O)[C@@H](COCc3ccccc3)NS(=O)(=O)CCCN3CCCC3)CC2)c2ccccc21 [Compound 152, (R)-N-(3-(benzyloxy)-1-(1-(methylsulfonyl)spiro[indoline-3,4′-piperidine]-1′-yl)-1-oxopropan-2-yl)-3-(pyrrolidin-1-yl)propane-1-sulfonamide]",< 100
12,"CCN(CC)CCCS(=O)(=O)N[C@H](COCc1ccccc1)C(=O)N1CCC2(CC1)CN(S(C)(=O)=O)c1ccccc12 [Compound 148, (R)-N-(3-(benzyloxy)-1-(1-(methylsulfonyl)spiro[indoline-3,4′-piperidine]-1′-yl)-1-oxopropan-2-yl)-3-(diethylamino)propane-1-sulfonamide]",100 to 1000
13,"CS(=O)(=O)N1CC2(CCN(C(=O)[C@@H](COCc3ccccc3)NS(=O)(=O)CCCN3CCOCC3)CC2)c2ccccc21 [Compound 142, (R)-N-(3-(benzyloxy)-1-(1-(methylsulfonyl)spiro[indoline-3,4′-piperidine]-1′-yl)-1-oxopropan-2-yl)-3-morpholinopropane-1-sulfonamide]",> 1000
14,"CCN(CC)CCCS(=O)(=O)N[C@H](COCc1ccccc1)C(=O)NCc1ccc(-c2ccccc2CN)cc1 [Compound 213, (R)-N-(2′-Aminomethyl-biphenyl-4-ylmethyl)-3-benzyloxy-2-(3-diethylamino-propane-1-sulfonylamino)-propionamide]",100 to 1000
15,"CCNC(=O)NCc1ccccc1-c1ccc(C(=O)[C@@H](CCc2ccccc2)NS(=O)(=O)CCCN(CC)CC)cc1 [Compound 197, (R)-3-(diethylamino)-N-(1-(2′-((3-ethylureido)methyl)biphenyl-4-yl)-1-oxo-4-phenylbutan-2-yl)propane-1-sulfonamide]",< 100
16,"CCN(CC)CCCS(=O)(=O)N[C@H](CCc1ccccc1)C(=O)c1ccc(-c2ccccc2CNC(=O)OC(C)(C)C)cc1 [Compound 190, (R)-tert-butyl (4′-(2-(3-(diethylamino)propylsulfonamido)-4-phenylbutanoyl)biphenyl-2-yl)methylcarbamate]",100 to 1000
17,"CCNC(=O)NCc1ccccc1-c1ccc(C(=O)[C@@H](CCc2ccccc2)NS(=O)(=O)CCN(CC)CC)cc1 [Compound 205, (R)-2-(diethylamino)-N-(1-(2′-((3-ethylureido)methyl)biphenyl-4-yl)-1-oxo-4-phenylbutan-2-yl)ethanesulfonamide]",< 100
18,"CCN(CC)CCCS(=O)(=O)N[C@H](COCc1ccccc1)C(=O)NCc1ccc(-c2ccccc2C(N)=O)cc1 [Compound 154, (R)-4′-{[3-Benzyloxy-2-(3-diethylamino-propane-1-sulfonylamino)-propionylamino]-methyl}-biphenyl-2-carboxylic acid amide]",100 to 1000
19,"CCN(CC)CCCS(=O)(=O)N[C@H](COCc1ccccc1)C(=O)NCc1ccc(-c2ccccc2CNC(=O)NC)cc1 [Compound 214, (R)-3-Benzyloxy-2-(3-diethylamino-propane-1-sulfonylamino)-N-{2′[(3-methyl-ureido)-methyl]-biphenyl-4-ylmethyl}-propionamide]",100 to 1000
20,"CS(=O)(=O)N1CC2(CCN(C(=O)[C@@H](COCc3ccccc3)NS(=O)(=O)CCN3CCCC3)CC2)c2ccccc21 [Compound 136, (R)-N-(3-(benzyloxy)-1-(1-(methylsulfonyl)spiro[indoline-3,4′-piperidine]-1′-yl)-1-oxopropan-2-yl)-2-(pyrrolidin-1-yl)ethanesulfonamide]",100 to 1000
21,"CC(C)(C)NCCCS(=O)(=O)N[C@H](COCc1ccccc1)C(=O)N1CCC2(CC1)CN(S(C)(=O)=O)c1ccccc12 [Compound 143, (R)-N-(3-(benzyloxy)-1-(1-(methylsulfonyl)spiro[indoline-3,4′-piperidine]-1′-yl)-1-oxopropan-2-yl)-3-(tert-butylamino)propane-1-sulfonamide]",100 to 1000
22,"CN(C)CCS(=O)(=O)N[C@H](COCc1ccccc1)C(=O)N1CCC2(CC1)CN(S(C)(=O)=O)c1ccccc12 [Compound 128, (R)-N-(3-(benzyloxy)-1-(1-(methylsulfonyl)spiro[indoline-3,4′-piperidine]-1′-yl)-1-oxopropan-2-yl)-2-(dimethylamino)ethanesulfonamide]",100 to 1000
23,"CCN(CC)CCCS(=O)(=O)N[C@H](COCc1ccccc1)C(=O)c1ccc(-c2ccccc2NC(=O)OC(C)(C)C)cc1 [Compound 166, (R)-{4′-[3-Benzyloxy-2-(3-diethylamino-propane-1-sulfonylamino)-propionyl]-biphenyl-2-yl}-carbamic acid tert-butyl ester]",> 1000
24,"CS(=O)(=O)N1CC2(CCN(C(=O)[C@@H](COCc3ccccc3)NS(=O)(=O)CCN3CCC3)CC2)c2ccccc21 [Compound 134, (R)-2-(azetidin-1-yl)-N-(3-(benzyloxy)-1-(1-(methylsulfonyl)spiro[indoline-3,4′-piperidine]-1′-yl)-1-oxopropan-2-yl)ethanesulfonamide]",> 1000
25,"CCN(CC)CCCS(=O)(=O)N[C@H](COCc1ccccc1)C(=O)NCc1ccc(-c2ccccc2CCNC(=O)NC)cc1 [Compound 217, (R)-3-Benzyloxy-2-(3-diethylamino-propane-1-sulfonylamino)-N-{2′-[2-(3-methyl-ureido)-ethyl]-biphenyl-4-ylmethyl}-propionamide]",100 to 1000
26,CCN(CC)CCCS(=O)(=O)N[C@H](CCc1ccccc1)C(=O)c1ccc(-c2ccccc2N)cc1 [Compound 169],< 100
27,"CCN(CC)CCCS(=O)(=O)N[C@H](CCc1ccccc1)C(=O)NCc1ccc(-c2ccccc2NC(=O)NC)cc1 [Compound 200, (R)-2-(3-(diethylamino)propylsulfonamido)-N-((2′-(3-methylureido)biphenyl-4-yl)methyl)-4-phenylbutanamide]",100 to 1000
